The values that follow are results of earlier work, collected in patent US20110082200A1, “5,6,7-TRIHYDROXYHEPTANOIC ACID AND ANALOGS FOR THE TREATMENT OF OCULAR DISEASES AND DISEASES ASSOCIATED WITH HYPERPROLIFERATIVE AND ANGIOGENIC RESPONSES” (ALCON, INC., priority 2004, published 2011).

Structures are written as SMILES.

In one series the test system is neutrophils. The following applies: compared with lipoxin A4.
Series [1] has as its system VEGF-induced angiogenesis. The following applies: murine chronic granulomatous air pouch model.
Series [2] concerns endothelial cell. The following applies: in vitro.
For series [3], the system named is endothelial cell. The following applies: in vitro. This is another data set of the same source.

Regarding `COC(=O)CCC[C@H](O)[C@H](O)CO` [Compound 1], the “inhibition of LTB4-induced chemotaxis of neutrophils” value in the series on neutrophils was “as potently as lipoxin A4”. `CCCCC[C@H](O)[C@H](O)CO` [Compound 2]: the “inhibition of LTB4-induced chemotaxis of neutrophils” value in the series on neutrophils is reported as “as potently as lipoxin A4”. Turning to `O=C(O)CCC[C@H](O)[C@H](O)/C=C/C=C/C=C\C=C\[C@H](O)COc1ccc(F)cc1` [Lipoxin analog 3], the “inhibition of VEGF-induced angiogenesis” value in series [1] is recorded as “inhibit”. In the series on endothelial cell [2], the “inhibition of VEGF-induced endothelial cell chemotaxis and proliferation” value was “inhibit”. In the series on endothelial cell [3], the “inhibition of leukotriene D4-induced endothelial cell chemotaxis and proliferation” value is given as “inhibit”.
